Where two headings read alike, the source gives them in different places.
Molecular target: AChE (Musca domestica, UniProt Q7YWJ9)
Assay: biochemical
Assay type: biochemical, fly
Settings: for Inhibition rate (%): test concentration of the compound 10 μM
Procedure: AChE (E.C. 3.1.1.7) (BR, 200 u/mg) from fly’s head and BuChE (E.C. 3.1.1.8) (BR, 20 u/mg) from horse serum were purchased from Shanghai Yuanye biological technology Co. Ltd (Shanghai, China).
The inhibitory activities of the compounds against AChE were evaluated according to Ellman’s coupled enzyme assay[47] with the following modifications. 90 μL potassium phosphate buffer (PBS, 0.1 M, pH 7.4), 10 μL the solution of 2 units/mL AChE in 0.1 M PBS (pH 7.4) and 10 μL the solution of 200 μM test compounds in the mixed solution of methanol-PBS (pH 7.4) (1:9, V/V) were added to each well of a 96-well plate. The methanol-PBS solution was used as a blank control. After incubation at room temperature for 10 min, 60 μL the solution of 10 mM DTNB in PBS was added into each the well. The plate was placed on crushed ices and cooled for 20 min. To each the well was added 30 μL the solution of 7.5 mM ATCh in PBS (pH 7.4). […] Each test was performed in triplicate. Inhibition rates of the enzyme were calculated relative to a control sample. The inhibitory activities against BuChE were measured as described above for AChE, using 0.7 unit/mL BuChE and 4 mM BuTCh instead of AChE and ATCh as the enzyme and substrate, respectively.
The probit value of the average inhibition rate for each test concentration and the corresponding lg[concentration] were used to establish enzyme inhibition regression equation by the linear least-square fitting method. IC50 values were calculated from the equations.

[1] = Estimated values based on the results in Table 1 (inhibition rate at 10 μM), read-out: IC50 AChE, estimated values

Chain of AChE (Q7YWJ9 81-659): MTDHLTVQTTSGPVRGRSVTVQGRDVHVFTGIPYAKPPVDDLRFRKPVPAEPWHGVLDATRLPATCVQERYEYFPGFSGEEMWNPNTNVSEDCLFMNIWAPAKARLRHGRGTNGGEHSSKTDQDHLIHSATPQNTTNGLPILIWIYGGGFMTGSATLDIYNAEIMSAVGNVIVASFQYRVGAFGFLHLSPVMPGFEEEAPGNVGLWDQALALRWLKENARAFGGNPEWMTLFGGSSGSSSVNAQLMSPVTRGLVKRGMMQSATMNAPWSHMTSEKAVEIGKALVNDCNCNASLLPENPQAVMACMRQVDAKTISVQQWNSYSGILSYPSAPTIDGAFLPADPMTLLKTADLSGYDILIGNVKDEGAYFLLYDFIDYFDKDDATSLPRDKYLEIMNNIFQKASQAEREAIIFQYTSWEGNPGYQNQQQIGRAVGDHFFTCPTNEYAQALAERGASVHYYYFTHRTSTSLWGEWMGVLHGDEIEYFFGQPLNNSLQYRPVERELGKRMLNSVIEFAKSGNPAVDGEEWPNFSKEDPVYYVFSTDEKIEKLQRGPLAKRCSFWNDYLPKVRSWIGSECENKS

Cn1c2c(c3ccccc31)CC[N+](c1ccccc1F)=C2.[Br-] [Compound A2]
IC50 [1]: > 10 µM | Inhibition rate (%): 15.1 ± 2.8 mnop %

Cn1c2c(c3ccccc31)CC[N+](c1cccc(F)c1)=C2.[Br-] [Compound A3]
IC50 [1]: > 10 µM | Inhibition rate (%): 22.4 ± 1.1 l %

Cn1c2c(c3ccccc31)CC[N+](c1ccccc1Cl)=C2.[Br-] [Compound A5]
IC50 [1]: > 10 µM | Inhibition rate (%): 2.4 ± 8.0 stu %

Cn1c2c(c3ccccc31)CC[N+](c1cccc(Cl)c1)=C2.[Br-] [Compound A6]
IC50 [1]: > 10 µM | Inhibition rate (%): 19.3 ± 4.0 lm %

Cn1c2c(c3ccccc31)CC[N+](c1ccccc1Br)=C2.[Br-] [Compound A8]
IC50 [1]: > 10 µM | Inhibition rate (%): 5.9 ± 1.0 qrs %

Cn1c2c(c3ccccc31)CC[N+](c1cccc(Br)c1)=C2.[Br-] [Compound A9]
IC50 [1]: > 10 µM | Inhibition rate (%): 16.2 ± 3.3 mno %

Cn1c2c(c3ccccc31)CC[N+](c1ccccc1I)=C2.[Br-] [Compound A11]
IC50 (10 μM, read-out: IC50 AChE, NA): > 10 µM | Inhibition rate (%): −10.6 ± 3.0 w %

Cn1c2c(c3ccccc31)CC[N+](c1cccc(I)c1)=C2.[Br-] [Compound A12]
IC50 [1]: > 10 µM | Inhibition rate (%): 10.1 ± 2.8 pqr %

Cn1c2c(c3ccccc31)CC[N+](c1ccccc1O)=C2.[Br-] [Compound A14]
IC50 [1]: > 10 µM | Inhibition rate (%): 23.2 ± 2.5 kl %

COc1ccccc1[N+]1=Cc2c(c3ccccc3n2C)CC1.[Br-] [Compound A17]
IC50 [1]: > 10 µM | Inhibition rate (%): 5.8 ± 2.4 qrs %

COc1cccc([N+]2=Cc3c(c4ccccc4n3C)CC2)c1.[Br-] [Compound A18]
IC50 [1]: > 10 µM | Inhibition rate (%): 4.7 ± 1.5 rst %

Cc1ccccc1[N+]1=Cc2c(c3ccccc3n2C)CC1.[Br-] [Compound A20]
IC50 [1]: > 10 µM | Inhibition rate (%): 44.3 ± 1.7 j %

Cc1cccc([N+]2=Cc3c(c4ccccc4n3C)CC2)c1.[Br-] [Compound A21]
IC50 [1]: > 10 µM | Inhibition rate (%): 28.6 ± 1.7 k %

Cn1c2c(c3ccccc31)CC[N+](c1ccccc1C#N)=C2.[Br-] [Compound A23]
IC50 [1]: > 10 µM | Inhibition rate (%): 10.1 ± 1.6 pqr %

Cn1c2c(c3ccccc31)CC[N+](c1cccc(C#N)c1)=C2.[Br-] [Compound A24]
IC50 [1]: > 10 µM | Inhibition rate (%): 18.9 ± 0.3 lmn %

Cn1c2c(c3ccccc31)CC[N+](c1ccc(C#N)cc1)=C2.[Br-] [Compound A25]
IC50 [1]: > 10 µM | Inhibition rate (%): 15.6 ± 1.8 mnop %

Cn1c2c(c3ccccc31)CC[N+](c1cccc(C(F)(F)F)c1)=C2.[Br-] [Compound A26]
IC50 [1]: > 10 µM | Inhibition rate (%): 12.8 ± 2.1 kln %

Cn1c2c(c3ccccc31)CC[N+](c1ccc(C(F)(F)F)cc1)=C2.[Br-] [Compound A27]
IC50 [1]: > 10 µM | Inhibition rate (%): 28.4 ± 1.0 k %

Cn1c2c(c3ccccc31)CC[N+](c1cccc([N+](=O)[O-])c1)=C2.[Br-] [Compound A28]
IC50 [1]: > 10 µM | Inhibition rate (%): 14.5 ± 3.9 mnop %

Cn1c2c(c3ccccc31)CC[N+](c1c(F)cccc1F)=C2.[Br-] [Compound A29]
IC50 (10 μM, read-out: IC50 AChE, NA): > 10 µM | Inhibition rate (%): −3.3 ± 2.0 uv %

Cn1c2c(c3ccccc31)CC[N+](c1ccc(Cl)cc1Cl)=C2.[Br-] [Compound A30]
IC50 (10 μM, read-out: IC50 AChE, NA): > 10 µM | Inhibition rate (%): −0.5 ± 2.4 tu %

Cn1c2c(c3ccccc31)CC[N+](c1cc(Cl)cc(Cl)c1)=C2.[Br-] [Compound A31]
IC50 (10 μM, read-out: IC50 AChE, NA): > 10 µM | Inhibition rate (%): 0.7 ± 0.5 stu %

Cn1c2c(c3ccccc31)CC[N+](c1ccc(Br)cc1F)=C2.[Br-] [Compound A32]
IC50 [1]: > 10 µM | Inhibition rate (%): 11.1 ± 2.8 opq %

Cn1c2c(c3ccccc31)CC[N+](c1ccc(Br)cc1Br)=C2.[Br-] [Compound A33]
IC50 (10 μM, read-out: IC50 AChE, NA): > 10 µM | Inhibition rate (%): no activity | Inhibition rate (%) (10 µM): −7.0 ± 8.3 vw %

CC(C)Cn1c2c(c3ccccc31)CC[N+](c1ccccc1)=C2.[Br-] [Compound A43]
IC50 [1]: > 10 µM | Inhibition rate (%): 46.5 ± 1.9 ghi %

C1=[N+](c2ccccc2)CCc2c1n(Cc1ccccc1)c1ccccc21.[Br-] [Compound A44]
IC50 [1]: > 10 µM | Inhibition rate (%): 31.2 ± 4.4 ef %

CCOC(=O)Cn1c2c(c3ccccc31)CC[N+](c1ccccc1)=C2.[Br-] [Compound A45]
IC50 [1]: > 10 µM | Inhibition rate (%): 38.8 ± 4.6 j %

Brc1ccc([N+]2=Cc3[nH]c4ccccc4c3CC2)cc1.[Br-] [Compound A47]
IC50 [1]: > 10 µM | Inhibition rate (%): 16.0 ± 1.7 mnop %

Cn1c2ccccc2c2cc[n+](-c3ccccc3)cc21.[Br-] [Compound B1, 9-Methyl-2-phenyl-β-carboline bromide]
IC50 (read-out: IC50 ± S.D AChE): 3.18 ± 0.12 µM | Inhibition rate (%): 71.5 ± 0.3 l %

Cn1c2ccccc2c2cc[n+](-c3ccccc3Cl)cc21.[Br-] [Compound B5, 9-Methyl-2-(2-chlorophenyl)-β-carboline bromide]
IC50 [1]: > 10 µM | Inhibition rate (%): 38.5 ± 1.9 st %

Cn1c2ccccc2c2cc[n+](-c3ccccc3Br)cc21.[Br-] [Compound B8, 9-Methyl-2-(2-bromophenyl)-β-carboline bromide]
IC50 [1]: > 10 µM | Inhibition rate (%): 32.1 ± 0.9 u %

Cn1c2ccccc2c2cc[n+](-c3cccc(Br)c3)cc21.[Br-] [Compound B9, 9-Methyl-2-(3-bromophenyl)-β-carboline bromide]
IC50 [1]: ~10 µM | Inhibition rate (%): 48.8 ± 6.6 q %

Cn1c2ccccc2c2cc[n+](-c3ccccc3I)cc21.[Br-] [Compound B11, 9-Methyl-2-(2-iodohenyl)-β-carboline bromide]
IC50 [1]: > 10 µM | Inhibition rate (%): 43.3 ± 1.8 r %

Cn1c2ccccc2c2cc[n+](-c3ccccc3O)cc21.[Br-] [Compound B14, 9-Methyl-2-(2-hydroxyhenyl)-β-carboline bromide]
IC50 [1]: > 10 µM | Inhibition rate (%): 23.9 ± 4.3 v %

COc1ccccc1-[n+]1ccc2c3ccccc3n(C)c2c1.[Br-] [Compound B17, 9-Methyl-2-(2-methoxylphenyl)-β-carboline bromide]
IC50 [1]: > 10 µM | Inhibition rate (%): 41.0 ± 2.9 rs %

Cn1c2ccccc2c2cc[n+](-c3ccc(C#N)cc3)cc21.[Br-] [Compound B25, 9-Methyl-2-(4-cyanophenyl)-β-carboline bromide]
IC50 [1]: > 10 µM | Inhibition rate (%): 36.8 ± 0.8 t %

Cn1c2ccccc2c2cc[n+](-c3cccc(C(F)(F)F)c3)cc21.[Br-] [Compound B26, 9-Methyl-2-(3-trifluoromethylphenyl)-β-carboline bromide]
IC50 [1]: > 10 µM | Inhibition rate (%): 41.0 ± 1.9 rs %

Cn1c2ccccc2c2cc[n+](-c3cccc([N+](=O)[O-])c3)cc21.[Br-] [Compound B28, 9-Methyl-2-(3-nitrophenyl)-β-carboline bromide]
IC50 [1]: > 10 µM | Inhibition rate (%): 34.9 ± 1.8 tu %

Cn1c2ccccc2c2cc[n+](-c3c(F)cccc3F)cc21.[Br-] [Compound B29, 9-Methyl-2-(2,6-difluorophenyl)-β-carboline bromide]
IC50 [1]: ~10 µM | Inhibition rate (%): 48.5 ± 3.1 pq %

Cn1c2ccccc2c2cc[n+](-c3cc(Cl)cc(Cl)c3)cc21.[Br-] [Compound B31, 9-Methyl-2-(3,5-dichlorophenyl)-β-carboline bromide]
IC50 [1]: > 10 µM | Inhibition rate (%): 18.9 ± 2.5 v %

COc1ccc2c(c1)c1cc[n+](-c3ccccc3)cc1n2C.[Br-] [Compound B34, 6-Methoxy-9-methyl-2-phenyl-β-carboline bromide]
IC50 (read-out: IC50 ± S.D AChE): 0.94 ± 0.23 µM | Inhibition rate (%): 85.7 ± 2.5 ghi %

Cc1ccc2c(c1)c1cc[n+](-c3ccccc3)cc1n2C.[Br-] [Compound B35, 6,9-Dimethyl-2-phenyl-β-carboline bromide]
IC50 (read-out: IC50 ± S.D AChE): 0.42 ± 0.15 µM | Inhibition rate (%): 88.6 ± 2.5 efg %

— article PMC5784158, “New 2-Aryl-9-methyl-β-carbolinium salts as Potential Acetylcholinesterase Inhibitor agents: Synthesis, Bioactivity and Structure–Activity Relationship” (Scientific Reports, 2018)
